The source of these data is ChEMBL document CHEMBL1140950, “Discovery of (2S,4R)-1-(2-aminoacetyl)-4-benzamidopyrrolidine-2-carboxylic acid hydrochloride (GAP-134)13, an orally active small molecule gap-junction modifier for the treatment of atrial fibrillation” (J Med Chem, 2009).

The term bioavailability denotes the share of a dose that reaches the circulation, judged against a reference dose that is usually intravenous. Low readings indicate little systemic uptake, high ones much systemic uptake. For orientation: half-life means the time in which the quantity being followed falls by half. Low values mean rapid decline, high ones slow decline. One may read the clearance as a measure of how efficiently the substance is removed, as volume per time. Lower therefore signals a low capacity for elimination. A word on the AUC: it is the area under the concentration-time curve, a measure of exposure. In general, Cmax refers to the peak of the concentration-time curve. As a reminder, the Tmax is the time at which the peak concentration occurs.

For one data set, the system named is Cardiac atrium. Description: Prevention of metabolic stress-induced conduction velocity slowing in Sprague-Dawley rat atrium at 10 uM by microelectrode based assay. Format: functional, tissue-based.
The target in a further data set is Cytochrome P450 2C9 (Homo sapiens, UniProt P11712). The data set is described as follows: Inhibition of CYP2C9 at 3 uM. Format: ADME.
Chain of Cytochrome P450 2C9 (P11712 whole entry): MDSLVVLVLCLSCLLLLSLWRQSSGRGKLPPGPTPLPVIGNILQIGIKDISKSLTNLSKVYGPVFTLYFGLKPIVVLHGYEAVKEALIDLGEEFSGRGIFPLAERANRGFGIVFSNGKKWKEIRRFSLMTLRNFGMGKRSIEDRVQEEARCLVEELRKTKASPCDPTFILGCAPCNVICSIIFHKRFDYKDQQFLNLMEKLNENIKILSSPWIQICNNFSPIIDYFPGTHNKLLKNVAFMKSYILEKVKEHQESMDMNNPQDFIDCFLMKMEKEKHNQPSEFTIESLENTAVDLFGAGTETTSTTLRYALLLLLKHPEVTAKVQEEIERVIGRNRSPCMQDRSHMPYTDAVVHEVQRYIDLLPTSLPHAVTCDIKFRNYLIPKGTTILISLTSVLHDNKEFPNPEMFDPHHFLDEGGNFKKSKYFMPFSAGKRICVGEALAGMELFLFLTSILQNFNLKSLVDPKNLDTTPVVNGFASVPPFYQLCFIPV
The nature of data set [1]: (§1) Oral bioavailability in rat at 5 mg/kg. Conditions: in vivo. The format is ADME, organism-based.
Data set [2] deals with C6. The data set is described as follows: Reduction of simulated ischemia-induced calcein uptake in rat C6 cells. Format: functional, cell-based.
Data set [3] in a line: Half life in rat at 5 mg/kg, po. The format is ADME, organism-based. The arrangement: dose 5 mg/kg, route oral. Conditions: in vivo.
Data set [4] has as its system Mus musculus. The data set is described as follows: Antiarrhythmic effect in calcium chloride-induced CD1 mouse arrhythmia model assessed as gap-junction intracellular communication re-establishment-mediated prolongation of time to onset of cardiac conduction block at 100 pmol/kg, iv relative to control. The format is functional, Heart.
Data set [5] is described as follows: Oral bioavailability in dog. The format is ADME, organism-based, Canis lupus familiaris. Conditions: in vivo.
Data set [6] can be described thus: Clearance in rat at 0.5 mg/kg, iv. Conditions: in vivo. Format: ADME, organism-based. Set-up: dose 0.5 mg/kg, route intravenous.
In data set [7] the test system is Mus musculus. The data set is described as follows: Antiarrhythmic effect in calcium chloride-induced po dosed CD1 mouse arrhythmia model assessed as gap-junction intracellular communication re-establishment-mediated prolongation of time to onset of cardiac conduction block relative to control. The format is functional, Heart.
Data set [8] concerns C6. The data set is described as follows: Reduction of simulated ischemia-induced cell swelling in rat C6 cells. The format is functional, cell-based.
For data set [9], the target named is Voltage-gated inwardly rectifying potassium channel KCNH2 (Homo sapiens, UniProt Q12809). Description: Inhibition of human ERG.
Chain of Voltage-gated inwardly rectifying potassium channel KCNH2 (Q12809 whole entry): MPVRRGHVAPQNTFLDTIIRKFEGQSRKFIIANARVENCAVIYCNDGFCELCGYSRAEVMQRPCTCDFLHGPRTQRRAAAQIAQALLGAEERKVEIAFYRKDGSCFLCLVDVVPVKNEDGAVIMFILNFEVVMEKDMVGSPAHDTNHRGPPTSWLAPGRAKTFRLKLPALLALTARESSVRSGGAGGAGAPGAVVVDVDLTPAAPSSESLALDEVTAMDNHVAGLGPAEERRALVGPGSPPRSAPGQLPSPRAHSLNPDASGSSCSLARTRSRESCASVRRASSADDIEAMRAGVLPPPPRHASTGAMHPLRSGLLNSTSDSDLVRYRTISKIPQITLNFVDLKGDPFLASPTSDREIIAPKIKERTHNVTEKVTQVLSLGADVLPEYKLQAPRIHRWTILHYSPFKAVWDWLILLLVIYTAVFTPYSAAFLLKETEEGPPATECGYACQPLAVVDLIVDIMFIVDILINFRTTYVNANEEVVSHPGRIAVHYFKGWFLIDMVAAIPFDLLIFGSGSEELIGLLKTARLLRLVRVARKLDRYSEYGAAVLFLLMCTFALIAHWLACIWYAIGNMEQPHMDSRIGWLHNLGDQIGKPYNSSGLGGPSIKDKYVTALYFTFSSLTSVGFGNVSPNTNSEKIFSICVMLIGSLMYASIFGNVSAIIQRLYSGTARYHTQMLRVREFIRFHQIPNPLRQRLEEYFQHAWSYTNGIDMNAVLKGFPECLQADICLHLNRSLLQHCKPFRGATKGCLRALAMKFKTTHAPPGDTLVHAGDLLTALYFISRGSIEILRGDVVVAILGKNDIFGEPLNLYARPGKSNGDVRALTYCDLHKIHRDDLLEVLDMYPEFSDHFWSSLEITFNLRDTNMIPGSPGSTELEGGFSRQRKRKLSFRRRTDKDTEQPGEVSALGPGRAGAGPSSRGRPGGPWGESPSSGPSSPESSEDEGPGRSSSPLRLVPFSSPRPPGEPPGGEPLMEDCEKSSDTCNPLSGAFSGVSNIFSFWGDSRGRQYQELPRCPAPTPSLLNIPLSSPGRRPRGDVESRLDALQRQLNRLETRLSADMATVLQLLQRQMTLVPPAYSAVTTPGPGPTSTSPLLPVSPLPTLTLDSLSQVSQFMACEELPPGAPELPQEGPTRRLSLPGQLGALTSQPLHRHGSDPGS
A further data set addresses Cytochrome P450 3A4 (Homo sapiens, UniProt P08684). The data set is described as follows: Inhibition of CYP3A4 at 3 uM. Format: ADME.
Data set [10] in a line: (§2) AUC in rat at 5 mg/kg, po. Format: ADME, organism-based, Plasma. To be noted: plasma. Set-up: dose 5 mg/kg, route oral.
Data set [11] can be described thus: Cmax in rat at 5 mg/kg, po. The format is ADME, organism-based. The arrangement: dose 5 mg/kg, route oral. To be noted: in vivo.
Data set [12] relates to Mus musculus. The data set is described as follows: Antiarrhythmic effect in calcium chloride-induced CD1 mouse arrhythmia model assessed as gap-junction intracellular communication re-establishment-mediated prolongation of time to onset of cardiac conduction block at 1 nmol/kg, iv relative to control. The format is functional, Heart.
Data set [13] can be described thus: Tmax in rat at 5 mg/kg, po. Set-up: dose 5 mg/kg, route oral. To be noted: in vivo. The format is ADME, organism-based.
In a further data set the target is Cytochrome P450 2D6 (Homo sapiens, UniProt P10635). Description: Inhibition of CYP2D6 at 3 uM. The format is ADME.
Chain of Cytochrome P450 2D6 (P10635 whole entry): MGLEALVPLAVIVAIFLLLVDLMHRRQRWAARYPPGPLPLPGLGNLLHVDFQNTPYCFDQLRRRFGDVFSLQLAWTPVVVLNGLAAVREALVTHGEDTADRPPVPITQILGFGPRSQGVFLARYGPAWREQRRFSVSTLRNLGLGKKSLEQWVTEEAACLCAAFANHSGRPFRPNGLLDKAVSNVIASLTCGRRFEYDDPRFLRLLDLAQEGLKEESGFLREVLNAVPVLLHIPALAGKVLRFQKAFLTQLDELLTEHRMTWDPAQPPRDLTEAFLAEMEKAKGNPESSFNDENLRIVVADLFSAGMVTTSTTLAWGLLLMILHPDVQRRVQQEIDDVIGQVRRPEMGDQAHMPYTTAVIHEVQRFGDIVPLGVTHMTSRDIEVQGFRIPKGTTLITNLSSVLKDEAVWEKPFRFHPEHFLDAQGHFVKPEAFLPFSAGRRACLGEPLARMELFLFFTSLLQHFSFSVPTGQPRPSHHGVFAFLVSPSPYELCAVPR
The nature of data set [14]: Volume of distribution at steady state in rat at 0.5 mg/kg, iv. To be noted: in vivo, read-out: Vdss. The arrangement: dose 0.5 mg/kg, route intravenous. Format: ADME, organism-based.
Data set [15] relates to Mus musculus. Description: Antiarrhythmic effect in calcium chloride-induced CD1 mouse arrhythmia model assessed as gap-junction intracellular communication re-establishment-mediated prolongation of time to onset of cardiac conduction block at 1 pmol/kg, iv relative to control. The format is functional, Heart.
The subject of data set [16] is Mus musculus. Description: Antiarrhythmic effect in calcium chloride-induced CD1 mouse arrhythmia model assessed as gap-junction intracellular communication re-establishment-mediated prolongation of time to onset of cardiac conduction block at 10 pmol/kg, iv relative to control. Format: functional, Heart.
Data set [17] in a line: Half life in rat at 0.5 mg/kg, iv. Format: ADME, organism-based. The arrangement: dose 0.5 mg/kg, route intravenous. To be noted: in vivo.
The subject of data set [18] is Mus musculus. The data set is described as follows: Antiarrhythmic effect in calcium chloride-induced CD1 mouse arrhythmia model assessed as gap-junction intracellular communication re-establishment-mediated prolongation of time to onset of cardiac conduction block at 10 mg/kg, po relative to control. Set-up: dose 10 mg/kg. The format is functional, organism-based. Conditions: Heart.

Data set [19] relates to Rattus norvegicus. The description is as §1. Format: ADME, organism-based. Conditions: in vivo.
Data set [20] has as its system Rattus norvegicus. The data set is described as §2. The format is ADME, organism-based, Plasma. The arrangement: dose 5 mg/kg, route oral. To be noted: in vivo.

Activity calls are given as the source filed them. The calls are words filed in the database; no cut-off is given here. Where a SMILES comes first, the peptide text is derived from it. [ ]: non-standard residue; d: D form. dHyp = O=C(O)[C@H]1C[C@H](O)CN1

Chain of Cytochrome P450 3A4 (P08684 whole entry): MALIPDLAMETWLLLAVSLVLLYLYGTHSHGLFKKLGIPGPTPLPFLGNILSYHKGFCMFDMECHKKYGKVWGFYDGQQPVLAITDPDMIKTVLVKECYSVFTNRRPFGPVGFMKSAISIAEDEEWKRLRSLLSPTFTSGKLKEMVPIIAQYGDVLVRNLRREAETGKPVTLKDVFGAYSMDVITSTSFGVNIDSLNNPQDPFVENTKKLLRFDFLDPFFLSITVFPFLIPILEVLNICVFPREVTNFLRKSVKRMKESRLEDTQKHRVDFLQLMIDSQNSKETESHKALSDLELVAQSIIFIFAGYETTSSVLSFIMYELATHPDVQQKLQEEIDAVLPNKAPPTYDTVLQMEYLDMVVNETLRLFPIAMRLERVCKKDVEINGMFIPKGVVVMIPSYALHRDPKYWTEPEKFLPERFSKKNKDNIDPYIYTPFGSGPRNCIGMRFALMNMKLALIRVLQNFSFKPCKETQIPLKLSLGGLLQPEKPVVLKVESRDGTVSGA

As to `Cl.NCC(=O)N1C[C@H](NC(=O)c2ccccc2)C[C@H]1C(=O)O`, the outcome with Cardiac atrium and with C6 [8] was Active. In addition, the Activity entry at Cytochrome P450 2C9 was “Not Active”; with C6 [2] it was “Dose-dependent effect”; in the data set with Mus musculus [4], 148%; in the data set on Mus musculus [7], 200%; in data set [9], “Not Active”; at Cytochrome P450 3A4 it was “Not Active”. Also, the Activity in the data set on Mus musculus [12] is reported as 173%; on Cytochrome P450 2D6 it was “Not Active”; in the data set on Mus musculus [15], 162%; in the data set with Mus musculus [16], 207%. The bioavailability is 9% in data set [1] and 21% in data set [5]. Moreover, the half-life in data set [3] was 114 min; in data set [17], 48 min. The same compound showed a clearance in data set [6] of 22 mL/min/kg. This compound displayed an AUC in [10] of 360 ng·h/mL. The compound also displayed a Cmax in data set [11] of 105 ng/mL. In data set [13], the time to peak (Tmax) amounted to 30 min. In addition, the Vd in data set [14] came to 0.61 L/kg.

On to `N[C@H](CCCCNC(=O)CNC(=O)c1ccc([N+](=O)[O-])cc1)CC(=O)O`, for which the Activity with Mus musculus [4] was 197%; with Mus musculus [12], 201%; in the data set on Mus musculus [15] it was 124%; in the data set with Mus musculus [16], 206%.

For the compound `CC(=O)N[C@H](Cc1ccc(O)cc1)C(=O)N1CCC[C@@H]1C(=O)N1C[C@@H](O)C[C@@H]1C(=O)NCC(=O)N[C@H](C)C(=O)NCC(N)=O` [ROTIGAPTIDE] (Ac-[dY][dP][dHyp]G[dA]G-NH2), the result in the data set with Cardiac atrium and in the data set on Mus musculus [18] was Active. In addition, the Activity result in the data set on C6 [2] is “Dose-dependent effect”; in the data set with Mus musculus [4] it was 152%; with Mus musculus [12], 156%; in the data set on Mus musculus [15], 199%; in the data set on Mus musculus [16], 207%.

Consider `NC(=O)C[C@H](NC(=O)CO)C(=O)N[C@@H](Cc1ccc(O)cc1)C(N)=O`, for which the result in the data set with Cardiac atrium was Active. In the data set with Rattus norvegicus [19], this compound registered an F of 0.7%. For the same compound, the values for the half-life in [3] and in [17] were 30 min and 18 min, respectively. The Activity with Mus musculus [4] is 203%; in the data set on Mus musculus [12], 187%; with Mus musculus [15] it was 188%; with Mus musculus [16], 232%. Also, in the data set on Rattus norvegicus [20], the area under the curve (AUC) came to 36 ng·h/mL. Moreover, the concentration in data set [11] peaked (Cmax) at 31.5 ng/mL. Moreover, in data set [13], the Tmax turned out to be 24 min. Further, the Vd in data set [14] worked out at 0.9 L/kg.

`COc1ccc(C(=O)NCC(=O)NCCCC[C@@H](N)CC(=O)O)cc1`: in the data set on Cardiac atrium, the outcome was Active. The bioavailability in data set [1] came out at 2%. Besides, the half-life in data set [3] was 90 min; in [17] it was 18 min. For the same compound, the Activity with Mus musculus [4] is recorded as 128%; in the data set on Mus musculus [12], 164%; in the data set with Mus musculus [15] it was 220%; in the data set on Mus musculus [16] it was 133%. For the same compound, the clearance in data set [6] was found to be 31 mL/min/kg. Besides, the AUC in data set [10] turned out to be 71 ng·h/mL. Besides, the Cmax in data set [11] turned out to be 28 ng/mL. In [13], the Tmax is 45 min. The Vd in [14] stood at 0.4 L/kg.

For the compound `NCC(=O)NCCCC[C@@H](NC(=O)c1ccc([N+](=O)[O-])cc1)C(=O)O`, the Activity in the data set on Mus musculus [4] worked out at 151%; with Mus musculus [12] it was 158%; with Mus musculus [15], 192%; with Mus musculus [16] it was 177%.

Turning to `CC(=O)N[C@@H](C)C(=O)NCC(=O)N[C@@H](CC(N)=O)C(=O)N[C@@H](Cc1ccc(O)cc1)C(N)=O` (Ac-AGNY-NH2), the Activity in the data set with Mus musculus [4] is given as 205%; with Mus musculus [12], 136%; in the data set with Mus musculus [15], 228%; with Mus musculus [16], 157%.
